Measured values published in BigSolDB 2.1.

CC(C)(C)OC(=O)N[C@@H](CC(=O)O)Cc1cc(F)c(F)cc1F
solubility (mole fraction)
Details | in THF | in ethanol | in ethyl acetate | in methanol | in n-butanol | in n-propanol
280.15 K | 0.0933 | 0.036 | 0.0409 | 0.053 | 0.0274 | 0.0312
285.15 K | 0.105 | 0.042 | 0.0477 | 0.0582 | 0.0306 | 0.0374
290.15 K | 0.116 | 0.0483 | 0.0556 | 0.0669 | 0.0353 | 0.0449
295.15 K | 0.129 | 0.0559 | 0.0652 | 0.0751 | 0.0426 | 0.0522
300.15 K | 0.144 | 0.0659 | 0.0773 | 0.085 | 0.0514 | 0.0619
305.15 K | 0.163 | 0.0754 | 0.089 | 0.097 | 0.0619 | 0.0718
310.15 K | 0.187 | 0.0894 | 0.104 | 0.111 | 0.0735 | 0.0847
315.15 K | 0.215 | 0.103 | 0.121 | 0.129 | 0.0868 | 0.0985
320.15 K | 0.244 | 0.125 | 0.14 | 0.151 | 0.103 | 0.116
325.15 K | 0.279 | 0.147 | 0.164 | 0.178 | 0.126 | 0.139
330.15 K | 0.322 | 0.173 | 0.188 | 0.211 | 0.154 | 0.162
